The assay relates to cerebral cortex slice. Put plainly: Glutamate liberation inhibitory activity in cerebral cortex slice. In kind it is cell-based, SD rat. The following applies: 10⁻⁴ M test compound; rat cerebral cortex slice, 30 min pre-incubation, then 50 mM KCl for 60 min; glutamate determined by HPLC, relative to solvent control. On the procedure:
Glutamate liberation inhibitory activity in cerebral cortex slice
A male SD rat was decapitated, and cerebral cortices on both sides were then extirpated to prepare a slice having a thickness of 750 µm (weight: 10 to 20 mg) with a McIlwain tissue chopper. The slice was incubated in a Krebs-Henseleit liquid containing a test compound in the form of a solution thereof for 30 minutes. Then the slice was incubated in one ml of a Krebs-Henseleit liquid containing 50 mM of KCl and the test compound solution for 60 mins. For control, a solvent was added to a Krebs-Henseleit liquid containing only 50 mM of KCl.
The glutamate liberated in the solution was determined by HPLC, and the glutamate liberation inhibitory activity (%) in 10⁻⁴ M of each test compound solution was calculated by the following equation: (1 -(glutamate in each test compound solution)/(amount of glutamate in control group)) x 100 [formula]

`O=C(CN1CCC(Oc2ccc(F)cc2)CC1)c1ccc2ccccc2c1` [compd. of Ex. 3]: the “glutamate liberation inhibitory activity (%) 1 x 10⁻⁴ M” value came to 49%.

The values above are taken from EP0318029B1, “Cyclic amine and pharmacological composition” (Eisai Co., Ltd., priority 1987, dated 1989).
